In ChEMBL document CHEMBL3352709, “Synthesis and binding profile of haloperidol-based bivalent ligands targeting dopamine D(2)-like receptors” (Bioorg Med Chem Lett, 2014):

Legend:
D(4) dopamine receptor = biological target: T1, D(4) dopamine receptor (Homo sapiens, UniProt P21917); test: Displacement of [3H]spiperone from human D4.4 receptor stably expressed in CHO cell membranes by competitive binding assay
T1 sequence (P21917 whole entry): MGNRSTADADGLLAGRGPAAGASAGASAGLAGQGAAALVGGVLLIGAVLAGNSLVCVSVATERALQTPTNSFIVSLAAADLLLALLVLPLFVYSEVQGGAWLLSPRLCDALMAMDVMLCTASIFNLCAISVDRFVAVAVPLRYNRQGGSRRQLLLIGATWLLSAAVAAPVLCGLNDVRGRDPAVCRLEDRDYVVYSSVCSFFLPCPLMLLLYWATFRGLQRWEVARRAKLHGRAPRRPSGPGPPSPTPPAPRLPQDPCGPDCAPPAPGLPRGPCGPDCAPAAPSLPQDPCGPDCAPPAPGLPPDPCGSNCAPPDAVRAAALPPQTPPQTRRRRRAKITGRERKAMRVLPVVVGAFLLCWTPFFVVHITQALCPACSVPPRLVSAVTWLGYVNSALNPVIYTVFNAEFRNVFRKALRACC

D(1A) dopamine receptor = D(1A) dopamine receptor (Sus scrofa, UniProt P50130); test: Displacement of [3H]SCH23390 from porcine striatal membranes D1 receptor by competitive binding assay
D(2) dopamine receptor [1] = biological target: T2, D(2) dopamine receptor (Homo sapiens, UniProt P14416); test: Displacement of [3H]spiperone from human D2long receptor stably expressed in CHO cell membranes by competitive binding assay
CHO [2] = test: Selectivity ratio of Ki for human D3 receptor stably expressed in CHO cell membranes to Ki for human D4.4 receptor stably expressed in CHO cell membranes; type: cell-based
D(2) dopamine receptor [3] = biological target: T2, D(2) dopamine receptor; test: Displacement of [3H]spiperone from human D2short receptor stably expressed in CHO cell membranes by competitive binding assay
D(3) dopamine receptor = D(3) dopamine receptor (Homo sapiens, UniProt P35462); test: Displacement of [3H]spiperone from human D3 receptor stably expressed in CHO cell membranes by competitive binding assay
CHO [4] = test: Selectivity ratio of Ki for human D4.4 receptor stably expressed in CHO cell membranes to Ki for human D3 receptor stably expressed in CHO cell membranes; type: cell-based

D(3) dopamine receptor, sequence (P35462 whole entry): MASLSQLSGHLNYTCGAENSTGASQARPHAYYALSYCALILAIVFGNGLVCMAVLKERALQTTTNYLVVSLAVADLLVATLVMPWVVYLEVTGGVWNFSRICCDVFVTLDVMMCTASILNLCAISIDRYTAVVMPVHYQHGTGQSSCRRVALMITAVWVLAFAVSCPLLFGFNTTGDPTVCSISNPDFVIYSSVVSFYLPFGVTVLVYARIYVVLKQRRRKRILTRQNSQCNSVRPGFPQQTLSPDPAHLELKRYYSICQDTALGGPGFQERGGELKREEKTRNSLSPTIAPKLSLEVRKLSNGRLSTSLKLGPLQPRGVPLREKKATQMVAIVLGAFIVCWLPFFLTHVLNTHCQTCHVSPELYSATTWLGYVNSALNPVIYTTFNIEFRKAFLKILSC
D(1A) dopamine receptor, sequence (P50130 whole entry): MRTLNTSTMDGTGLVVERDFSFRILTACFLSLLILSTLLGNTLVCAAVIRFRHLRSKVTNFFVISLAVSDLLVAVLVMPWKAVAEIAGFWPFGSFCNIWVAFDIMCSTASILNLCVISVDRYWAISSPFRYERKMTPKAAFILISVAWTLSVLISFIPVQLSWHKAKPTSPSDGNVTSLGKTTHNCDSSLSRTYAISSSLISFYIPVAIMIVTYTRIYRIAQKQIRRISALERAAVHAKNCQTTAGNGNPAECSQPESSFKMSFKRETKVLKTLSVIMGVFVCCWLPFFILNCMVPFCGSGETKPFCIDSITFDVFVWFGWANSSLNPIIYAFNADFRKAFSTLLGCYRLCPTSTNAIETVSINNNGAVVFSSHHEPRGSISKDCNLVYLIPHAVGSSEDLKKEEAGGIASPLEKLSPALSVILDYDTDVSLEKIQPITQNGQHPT
T2 sequence (P14416 whole entry): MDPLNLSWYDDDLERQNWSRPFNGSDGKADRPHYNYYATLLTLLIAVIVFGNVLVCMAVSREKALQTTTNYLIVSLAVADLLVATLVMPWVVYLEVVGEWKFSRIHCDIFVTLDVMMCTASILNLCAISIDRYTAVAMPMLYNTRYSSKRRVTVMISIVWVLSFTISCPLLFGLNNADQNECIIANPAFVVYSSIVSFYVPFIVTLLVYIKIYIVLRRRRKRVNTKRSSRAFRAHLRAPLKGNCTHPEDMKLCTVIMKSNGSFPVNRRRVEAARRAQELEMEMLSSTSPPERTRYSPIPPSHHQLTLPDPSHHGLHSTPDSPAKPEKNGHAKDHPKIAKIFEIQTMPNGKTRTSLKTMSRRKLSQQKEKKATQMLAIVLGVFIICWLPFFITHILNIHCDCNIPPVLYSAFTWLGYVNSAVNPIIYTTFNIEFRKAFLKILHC

Row | Structure (SMILES) | Ki (D(4) dopamine receptor) [nM] | Ki (D(1A) dopamine receptor) [nM] | Ki (D(2) dopamine receptor [1]) [nM] | Ratio Ki (CHO [2]) | Ki (D(2) dopamine receptor [3]) [nM] | Ki (D(3) dopamine receptor) [nM] | Ratio Ki (CHO [4])
1 | CCC(=O)OC1(c2ccc(Cl)cc2)CCN(CCCC(=O)c2ccc(F)cc2)CC1 | 2.5 | 72 | 3.9 | 8 | 1.6 | 41 | –
2 | O=C(CCCCC(=O)OC1(c2ccc(Cl)cc2)CCN(CCCC(=O)c2ccc(F)cc2)CC1)OC1(c2ccc(Cl)cc2)CCN(CCCC(=O)c2ccc(F)cc2)CC1 | 41 | 220 | 3 | – | 2.3 | 11 | 2
3 | O=C(CCCCCCCC(=O)OC1(c2ccc(Cl)cc2)CCN(CCCC(=O)c2ccc(F)cc2)CC1)OC1(c2ccc(Cl)cc2)CCN(CCCC(=O)c2ccc(F)cc2)CC1 | 520 | 1200 | 5.6 | – | 6.5 | 9.1 | –
4 | O=C(CCCCCCCCCCCCCCCCC(=O)OC1(c2ccc(Cl)cc2)CCN(CCCC(=O)c2ccc(F)cc2)CC1)OC1(c2ccc(Cl)cc2)CCN(CCCC(=O)c2ccc(F)cc2)CC1 | 570 | 930 | 160 | – | 150 | 380 | –
5 | O=C(CCc1cn(CCCCCCCCn2cc(CCC(=O)OC3(c4ccc(Cl)cc4)CCN(CCCC(=O)c4ccc(F)cc4)CC3)nn2)nn1)OC1(c2ccc(Cl)cc2)CCN(CCCC(=O)c2ccc(F)cc2)CC1 | 19 | 49 | 1.3 | – | 1.6 | 1.8 | –
6 | O=C(CCc1cn(CCCCCCCCCCn2cc(CCC(=O)OC3(c4ccc(Cl)cc4)CCN(CCCC(=O)c4ccc(F)cc4)CC3)nn2)nn1)OC1(c2ccc(Cl)cc2)CCN(CCCC(=O)c2ccc(F)cc2)CC1 | 89 | 86 | 4.9 | – | 5.4 | 5.9 | –
7 | O=C(CCCCCCCCCCC(=O)OC1(c2ccc(Cl)cc2)CCN(CCCC(=O)c2ccc(F)cc2)CC1)OC1(c2ccc(Cl)cc2)CCN(CCCC(=O)c2ccc(F)cc2)CC1 | 2200 | 1100 | 66 | – | 46 | 210 | –
8 | O=C(CCc1cn(CCOCCOCCOCCn2cc(CCC(=O)OC3(c4ccc(Cl)cc4)CCN(CCCC(=O)c4ccc(F)cc4)CC3)nn2)nn1)OC1(c2ccc(Cl)cc2)CCN(CCCC(=O)c2ccc(F)cc2)CC1 | 41 | 120 | 1 | – | 3 | 9.8 | –
9 | CN(C)CCC(=O)OC1(c2ccc(Cl)cc2)CCN(CCCC(=O)c2ccc(F)cc2)CC1 | 8.7 | 200 | 1.9 | – | 1.8 | 30 | –
10 | CC(=O)OC1(c2ccc(Cl)cc2)CCN(CCCC(=O)c2ccc(F)cc2)CC1 | 9.3 | 59 | 4.5 | 8 | 4.5 | 56 | –
11 | CN(CCC(=O)OC1(c2ccc(Cl)cc2)CCN(CCCC(=O)c2ccc(F)cc2)CC1)CCN(C)CCC(=O)OC1(c2ccc(Cl)cc2)CCN(CCCC(=O)c2ccc(F)cc2)CC1 | 29 | 260 | 3.2 | – | 2.2 | 47 | –
12 | Cc1ccc(C(=O)OC2(c3ccc(Cl)cc3)CCN(CCCC(=O)c3ccc(F)cc3)CC2)cc1 | 130 | 550 | 56 | – | 47 | 270 | –
13 | O=C(CCCCCC(=O)OC1(c2ccc(Cl)cc2)CCN(CCCC(=O)c2ccc(F)cc2)CC1)OC1(c2ccc(Cl)cc2)CCN(CCCC(=O)c2ccc(F)cc2)CC1 | 360 | 280 | 3.3 | – | 2.6 | 11 | –
14 | O=C(CCC(=O)OC1(c2ccc(Cl)cc2)CCN(CCCC(=O)c2ccc(F)cc2)CC1)OC1(c2ccc(Cl)cc2)CCN(CCCC(=O)c2ccc(F)cc2)CC1 | 24 | 130 | 6.7 | – | 5.4 | 14 | 2
15 | O=C(CCCCCCCCCCCCCCCCCCC(=O)OC1(c2ccc(Cl)cc2)CCN(CCCC(=O)c2ccc(F)cc2)CC1)OC1(c2ccc(Cl)cc2)CCN(CCCC(=O)c2ccc(F)cc2)CC1 | 160 | 1400 | 25 | – | 27 | 82 | –
16 | O=C(CCCCCCCCCCCCC(=O)OC1(c2ccc(Cl)cc2)CCN(CCCC(=O)c2ccc(F)cc2)CC1)OC1(c2ccc(Cl)cc2)CCN(CCCC(=O)c2ccc(F)cc2)CC1 | 490 | 1400 | 120 | – | 62 | 160 | –
17 | O=C(CCCCCCCCCCCCCCCCCCCCC(=O)OC1(c2ccc(Cl)cc2)CCN(CCCC(=O)c2ccc(F)cc2)CC1)OC1(c2ccc(Cl)cc2)CCN(CCCC(=O)c2ccc(F)cc2)CC1 | 850 | 1500 | 310 | – | 280 | 500 | –
18 | O=C(CCN1CCN(CCC(=O)OC2(c3ccc(Cl)cc3)CCN(CCCC(=O)c3ccc(F)cc3)CC2)CC1)OC1(c2ccc(Cl)cc2)CCN(CCCC(=O)c2ccc(F)cc2)CC1 | 33 | 360 | 2.5 | – | 1.1 | 9.5 | –
19 | O=C(CCC(=O)N1CCC(O)(c2ccc(Cl)cc2)CC1)c1ccc(F)cc1 | 18000 | 19000 | 860 | – | 470 | 1700 | –
20 | O=C(CCCCCCC(=O)OC1(c2ccc(Cl)cc2)CCN(CCCC(=O)c2ccc(F)cc2)CC1)OC1(c2ccc(Cl)cc2)CCN(CCCC(=O)c2ccc(F)cc2)CC1 | 300 | 920 | 2.5 | – | 2.9 | 6.4 | –
21 | O=C(CCCCCCCCC(=O)OC1(c2ccc(Cl)cc2)CCN(CCCC(=O)c2ccc(F)cc2)CC1)OC1(c2ccc(Cl)cc2)CCN(CCCC(=O)c2ccc(F)cc2)CC1 | 490 | 1400 | 15 | – | 31 | 39 | –
22 | CCCCCCCCCC(=O)OC1(c2ccc(Cl)cc2)CCN(CCCC(=O)c2ccc(F)cc2)CC1 [HALOPERIDOL DECANOATE] | 5.8 | 140 | 1.8 | – | 0.46 | 3.5 | –
23 | O=C(CCc1cn(CCOCCOCCOCCOCCn2cc(CCC(=O)OC3(c4ccc(Cl)cc4)CCN(CCCC(=O)c4ccc(F)cc4)CC3)nn2)nn1)OC1(c2ccc(Cl)cc2)CCN(CCCC(=O)c2ccc(F)cc2)CC1 | 46 | 150 | 1.6 | – | 3.8 | 19 | –
24 | O=C(CCCCCCCCCCCCCCC(=O)OC1(c2ccc(Cl)cc2)CCN(CCCC(=O)c2ccc(F)cc2)CC1)OC1(c2ccc(Cl)cc2)CCN(CCCC(=O)c2ccc(F)cc2)CC1 | 1400 | 6800 | 140 | – | 280 | 220 | –
25 | O=C(CCCC(=O)OC1(c2ccc(Cl)cc2)CCN(CCCC(=O)c2ccc(F)cc2)CC1)OC1(c2ccc(Cl)cc2)CCN(CCCC(=O)c2ccc(F)cc2)CC1 | 33 | 220 | 12 | – | 12 | 31 | –
